# Source: PubChem BioAssay (NCI)
#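 1) Cells in 96-well plates. 2) Compound, 48 h, 5 concentrations. 3) Linear interpolation between surrounding doses. 4) Unreached endpoint = highest concentration. GI50 marks 50% less growth. TGI denotes the concentration required for complete inhibition of growth.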
# Columns and labels:
# Assay in all cases: growth of human tumour cells (NCI), 48 h
# PC-3 prostate = tested on: PC-3 prostate
# NCI-H522 lung = tested on: NCI-H522 lung
# CAKI-1 renal = tested on: CAKI-1 renal
# HOP-92 NSCLC = tested on: HOP-92 NSCLC
# SK-MEL-28 melanoma = tested on: SK-MEL-28 melanoma
# SK-MEL-2 melanoma = tested on: SK-MEL-2 melanoma
# SK-MEL-5 melanoma = tested on: SK-MEL-5 melanoma
# HT29 colon = tested on: HT29 colon
# HCC-2998 colon = tested on: HCC-2998 colon
# OVCAR-4 ovarian = tested on: OVCAR-4 ovarian
# SW-620 colon = tested on: SW-620 colon
# NCI/ADR-RES ovarian = tested on: NCI/ADR-RES ovarian
# HL-60(TB) leukemia = tested on: HL-60(TB) leukemia
# MOLT-4 leukemia = tested on: MOLT-4 leukemia
# KM12 colon = tested on: KM12 colon
# MALME-3M melanoma = tested on: MALME-3M melanoma
# BT-549 breast = tested on: BT-549 breast
# MDA-MB-435 = tested on: MDA-MB-435
# NCI-H226 lung = tested on: NCI-H226 lung
# COLO 205 colon = tested on: COLO 205 colon
# HCT-15 colon = tested on: HCT-15 colon
# RPMI-8226 leukemia = tested on: RPMI-8226 leukemia
# SNB-19 CNS = tested on: SNB-19 CNS
# HS 578T breast = tested on: HS 578T breast
# SF-295 CNS = tested on: SF-295 CNS
# 786-0 renal = tested on: 786-0 renal
# UACC-257 melanoma = tested on: UACC-257 melanoma
# A549 NSCLC = tested on: A549 NSCLC
# MCF7 breast = tested on: MCF7 breast
# UO-31 renal = tested on: UO-31 renal
# MDA-MB-231 breast = tested on: MDA-MB-231 breast
# EKVX NSCLC = tested on: EKVX NSCLC
# SN12C renal = tested on: SN12C renal
# SF-539 CNS = tested on: SF-539 CNS
# HOP-62 NSCLC = tested on: HOP-62 NSCLC
# SK-OV-3 ovarian = tested on: SK-OV-3 ovarian
# DU-145 prostate = tested on: DU-145 prostate
# RXF 393 renal = tested on: RXF 393 renal
# SNB-75 CNS = tested on: SNB-75 CNS
# CCRF-CEM leukemia = tested on: CCRF-CEM leukemia
# SF-268 CNS = tested on: SF-268 CNS
# NCI-H23 lung = tested on: NCI-H23 lung
# NCI-H460 lung = tested on: NCI-H460 lung
# ACHN renal = tested on: ACHN renal
# A498 renal = tested on: A498 renal
# UACC-62 melanoma = tested on: UACC-62 melanoma
# OVCAR-8 ovarian = tested on: OVCAR-8 ovarian
# T-47D breast = tested on: T-47D breast
# K-562 leukemia = tested on: K-562 leukemia
# SR leukemia = tested on: SR leukemia
# OVCAR-3 ovarian = tested on: OVCAR-3 ovarian
# HCT-116 colon = tested on: HCT-116 colon
# M14 melanoma = tested on: M14 melanoma
# U251 CNS = tested on: U251 CNS
# OVCAR-5 ovarian = tested on: OVCAR-5 ovarian
# LOX IMVI melanoma = tested on: LOX IMVI melanoma
# IGROV1 ovarian = tested on: IGROV1 ovarian
# TK-10 renal = tested on: TK-10 renal
smiles,measurement,setting,value
CCN(CC)c1ccc(C=C2C(=O)NC(=S)NC2=O)cc1,GI50,PC-3 prostate,2.75 µM
same,TGI,PC-3 prostate,7.96 µM
same,GI50,NCI-H522 lung,1.77 µM
same,TGI,NCI-H522 lung,4.29 µM
same,GI50,CAKI-1 renal,1.72 µM
same,TGI,CAKI-1 renal,4.5 µM
same,GI50,HOP-92 NSCLC,2.6 µM
same,TGI,HOP-92 NSCLC,7.78 µM
same,GI50,SK-MEL-28 melanoma,2.43 µM
same,TGI,SK-MEL-28 melanoma,5.1 µM
same,GI50,SK-MEL-2 melanoma,2.73 µM
same,TGI,SK-MEL-2 melanoma,7.05 µM
same,GI50,SK-MEL-5 melanoma,9.25 µM
same,TGI,SK-MEL-5 melanoma,21.5 µM
same,GI50,HT29 colon,1.86 µM
same,TGI,HT29 colon,3.64 µM
same,GI50,HCC-2998 colon,1.99 µM
same,TGI,HCC-2998 colon,3.73 µM
same,GI50,OVCAR-4 ovarian,7.58 µM
same,TGI,OVCAR-4 ovarian,19.5 µM
same,GI50,SW-620 colon,1.91 µM
same,TGI,SW-620 colon,4.32 µM
same,GI50,NCI/ADR-RES ovarian,3.39 µM
same,TGI,NCI/ADR-RES ovarian,12.2 µM
same,GI50,HL-60(TB) leukemia,2.6 µM
same,TGI,HL-60(TB) leukemia,7.58 µM
same,GI50,MOLT-4 leukemia,3.16 µM
same,TGI,MOLT-4 leukemia,10.4 µM
same,GI50,KM12 colon,4.52 µM
same,TGI,KM12 colon,16.6 µM
same,GI50,MALME-3M melanoma,2.98 µM
same,TGI,MALME-3M melanoma,7.49 µM
same,GI50,BT-549 breast,2.27 µM
same,TGI,BT-549 breast,4.74 µM
same,GI50,MDA-MB-435,2.31 µM
same,TGI,MDA-MB-435,7.1 µM
same,GI50,NCI-H226 lung,3.24 µM
same,TGI,NCI-H226 lung,10.2 µM
same,GI50,COLO 205 colon,2.49 µM
same,TGI,COLO 205 colon,6.62 µM
same,GI50,HCT-15 colon,3.24 µM
same,TGI,HCT-15 colon,9.22 µM
same,GI50,RPMI-8226 leukemia,2.15 µM
same,TGI,RPMI-8226 leukemia,5.49 µM
same,GI50,SNB-19 CNS,3.55 µM
same,TGI,SNB-19 CNS,13.8 µM
same,GI50,HS 578T breast,5.53 µM
same,TGI,HS 578T breast,> 100 µM
same,GI50,SF-295 CNS,6.21 µM
same,TGI,SF-295 CNS,21.2 µM
same,GI50,786-0 renal,2.27 µM
same,TGI,786-0 renal,4.08 µM
same,GI50,UACC-257 melanoma,6.46 µM
same,TGI,UACC-257 melanoma,19.4 µM
same,GI50,A549 NSCLC,12.1 µM
same,TGI,A549 NSCLC,28 µM
same,GI50,MCF7 breast,3.85 µM
same,TGI,MCF7 breast,13.2 µM
same,GI50,UO-31 renal,1.62 µM
same,TGI,UO-31 renal,3.61 µM
same,GI50,MDA-MB-231 breast,3.49 µM
same,TGI,MDA-MB-231 breast,10.6 µM
same,GI50,EKVX NSCLC,14 µM
same,TGI,EKVX NSCLC,28.6 µM
same,GI50,SN12C renal,7.24 µM
same,TGI,SN12C renal,23.1 µM
same,GI50,SF-539 CNS,2.77 µM
same,TGI,SF-539 CNS,6.15 µM
same,GI50,HOP-62 NSCLC,5.7 µM
same,TGI,HOP-62 NSCLC,19.1 µM
same,GI50,SK-OV-3 ovarian,14.8 µM
same,TGI,SK-OV-3 ovarian,28 µM
same,GI50,DU-145 prostate,4.18 µM
same,TGI,DU-145 prostate,13 µM
same,GI50,RXF 393 renal,2.07 µM
same,TGI,RXF 393 renal,3.72 µM
same,GI50,SNB-75 CNS,2.66 µM
same,TGI,SNB-75 CNS,8.75 µM
same,GI50,CCRF-CEM leukemia,2.12 µM
same,TGI,CCRF-CEM leukemia,6.89 µM
same,GI50,SF-268 CNS,3.83 µM
same,TGI,SF-268 CNS,13.7 µM
same,GI50,NCI-H23 lung,2.98 µM
same,TGI,NCI-H23 lung,9.72 µM
same,GI50,NCI-H460 lung,3.99 µM
same,TGI,NCI-H460 lung,15.1 µM
same,GI50,ACHN renal,5.82 µM
same,TGI,ACHN renal,18.5 µM
same,GI50,A498 renal,3.29 µM
same,TGI,A498 renal,11.3 µM
same,GI50,UACC-62 melanoma,2.26 µM
same,TGI,UACC-62 melanoma,6.72 µM
same,GI50,OVCAR-8 ovarian,3.83 µM
same,TGI,OVCAR-8 ovarian,13.4 µM
same,GI50,T-47D breast,9.62 µM
same,TGI,T-47D breast,25.7 µM
same,GI50,K-562 leukemia,3.1 µM
same,TGI,K-562 leukemia,10.7 µM
same,GI50,SR leukemia,1.69 µM
same,TGI,SR leukemia,10.3 µM
same,GI50,OVCAR-3 ovarian,3.15 µM
same,TGI,OVCAR-3 ovarian,8.68 µM
same,GI50,HCT-116 colon,3.34 µM
same,TGI,HCT-116 colon,8.98 µM
same,GI50,M14 melanoma,6.6 µM
same,TGI,M14 melanoma,21 µM
same,GI50,U251 CNS,2.9 µM
same,TGI,U251 CNS,7.59 µM
same,GI50,OVCAR-5 ovarian,11.9 µM
same,TGI,OVCAR-5 ovarian,26.5 µM
same,GI50,LOX IMVI melanoma,2.12 µM
same,TGI,LOX IMVI melanoma,4.57 µM
O=C(O)CN1CCN2CCOCCN(CC1)CCN(CC(=O)O)CC2,TGI,PC-3 prostate,> 100 µM
same,TGI,NCI-H522 lung,> 100 µM
same,TGI,CAKI-1 renal,> 100 µM
same,TGI,HOP-92 NSCLC,> 100 µM
same,TGI,SK-MEL-28 melanoma,> 100 µM
same,TGI,SK-MEL-2 melanoma,> 100 µM
same,TGI,SK-MEL-5 melanoma,> 100 µM
same,TGI,HT29 colon,> 100 µM
same,TGI,HCC-2998 colon,> 100 µM
same,TGI,OVCAR-4 ovarian,> 100 µM
same,TGI,SW-620 colon,> 100 µM
same,TGI,NCI/ADR-RES ovarian,> 100 µM
same,TGI,HL-60(TB) leukemia,> 100 µM
same,TGI,MOLT-4 leukemia,> 100 µM
same,TGI,KM12 colon,> 100 µM
same,TGI,MALME-3M melanoma,> 100 µM
same,TGI,BT-549 breast,> 100 µM
same,TGI,MDA-MB-435,> 100 µM
same,TGI,NCI-H226 lung,> 100 µM
same,TGI,COLO 205 colon,> 100 µM
same,TGI,HCT-15 colon,> 100 µM
same,TGI,RPMI-8226 leukemia,> 100 µM
same,TGI,SNB-19 CNS,> 100 µM
same,TGI,HS 578T breast,> 100 µM
same,TGI,SF-295 CNS,> 100 µM
same,TGI,786-0 renal,> 100 µM
same,TGI,UACC-257 melanoma,> 100 µM
same,TGI,A549 NSCLC,> 100 µM
same,TGI,MCF7 breast,> 100 µM
same,TGI,UO-31 renal,> 100 µM
same,TGI,MDA-MB-231 breast,> 100 µM
same,TGI,EKVX NSCLC,> 100 µM
same,TGI,SN12C renal,> 100 µM
same,TGI,SF-539 CNS,> 100 µM
same,TGI,HOP-62 NSCLC,> 100 µM
same,TGI,IGROV1 ovarian,> 100 µM
same,TGI,SK-OV-3 ovarian,> 100 µM
same,TGI,DU-145 prostate,> 100 µM
same,TGI,RXF 393 renal,> 100 µM
same,TGI,SNB-75 CNS,> 100 µM
same,TGI,CCRF-CEM leukemia,> 100 µM
same,TGI,SF-268 CNS,> 100 µM
same,TGI,NCI-H23 lung,> 100 µM
same,TGI,TK-10 renal,> 100 µM
same,TGI,NCI-H460 lung,> 100 µM
same,TGI,ACHN renal,> 100 µM
same,TGI,A498 renal,> 100 µM
same,TGI,UACC-62 melanoma,> 100 µM
same,TGI,OVCAR-8 ovarian,> 100 µM
same,TGI,T-47D breast,> 100 µM
same,TGI,K-562 leukemia,> 100 µM
same,TGI,SR leukemia,> 100 µM
same,TGI,OVCAR-3 ovarian,> 100 µM
same,TGI,HCT-116 colon,> 100 µM
same,TGI,M14 melanoma,> 100 µM
same,TGI,U251 CNS,> 100 µM
same,TGI,OVCAR-5 ovarian,> 100 µM
same,TGI,LOX IMVI melanoma,> 100 µM
